# Read-outs that look alike come from different tables or passages of the source.
# What was measured:
# heart muscle = assay: Cardioprotective effect in isoprenaline necrosis; format: in vivo, male CFY rats; conditions: 1-5 mg/kg i.p. or 10-50 mg/kg p.o.; isoproterenol 5 mg/kg i.p.; two weeks
# Experimental: 5 mg/kg of isoproterenol are i.p. administered to male CFY rats (weight 250-300 g). In each group 10 animals were used. One part of the animals served as control and the other were treated with a 1-5 mg/kg i.p. or 10-50 mg/kg p.o. dose of compound No. 14. After two weeks the hearts were subjected to hystological evaluation. The ratio of necrotized and intact area of heart muscle were determined.
# ticks (Ixodes ricinus) = assay: Anti-parasital effect in dogs infected by ticks; format: in vivo; conditions: oral 1-2 mg/kg; six-eight hours after administration
# Experimental: Compounds of the Formula I were added orally to dogs infected by ticks (Ixodes ricinus) for three days. Thus N-aminoiminomethyl-S-allyl-isothiuronium hydrochloride was administered in an oral dose of 1-2 mg/kg and the killing rate of ticks was registered.
# ascites lymphoma cells = assay: Preliminary rapid test: antitumor effect; format: in vivo, CFLP male mice; conditions: oral, one-tenth of LD50; 24 hours
# [1] = tested on: neutrophilic granulocytes, lymphocytes and macrophages; assay: Preliminary rapid test: immunostimulant effect; format: in vivo, CFLP male mice; design: key: 0: if there is no difference in the number and activity of the said cells, no increase can be declared over the control; medium: Medium effect is observed if the increase of cell number or activity over the control amounts to 20%; The effect is strong if the increase of the cell number and activity of the immune system is more than 20% higher than the control; conditions: oral, one-tenth of LD50; 24 hours
# [2] = tested on: neutrophylic granulocytes and limphocytes; conditions: mouse, in vivo, po
# [3] = in vivo, 24 h
# [4] = tested on: human polymorphonuclear leucocytes; assay: Direct /random/ migration of human polymorphonuclear leucocytes on agarose microdrops; format: cell-based; conditions: for Effect on migration at a higher dose: 10 μg/ml; for Direct (random) migration of polymorphonuclear cells / Optimal dose for increase of migration: healthy donors
# Experimental: Spontaneous (random) migration of leukocytes was measured on agarose microdrops according to the method of McCoy et al (1977) by carrying out some minor modifications (Kalmar and Gergely, 1982).
# […] agarose drops (0.2%) were placed on migration plates (Greiner, German Federal Republic). TC 199 liquid nutrient medium was added and the plates were air-tightly closed. After 24 hours the migration area were measured under a stereomicroscope. The migration area were expressed in mm^2.
# tumor cells = assay: Testing of antitumor effect (overall)
# NK-yl ascites tumor = assay: Combinations with known cytostatic agents in NK-ly ascites tumor; format: in vivo, CFLP mice; conditions: with cyclophosphamide, carnomustine, degranol, dibromo dulcitol or dibromo mannitol
# NK-ly-ascites lymphoma = NK-ly-ascites lymphoma in vivo; design: species or system CFLP male mice; conditions: for Activity against NK-ly-ascites tumor: concentration below one-tenth of the LD50 value; for Survival rate and lifetime: dose-dependant
# human lymphocytes = assay: Immunological tests (overall; NK and K cell activity); format: cell-based
# Experimental: Lymphocytes were separated on Ficoll-Uromiro (Boyum 1968) gradient from the venal blood of healthy donors and patients suffering from malignant lymphoma and metastatizing solid tumours, respectively. When selecting the patients belonging to the latter group, the decreased ADCC and NK activity was taken into consideration. The phagocytes were removed by treatment with iron powder and a magnet.
# ADCC was determined according to the method of Perlmann and Perlmann (1970) with minor modifications (Lang et al, 1981). Chicken erythrocytes labelled with 10^5 51 Cr and coated with anti-chicken erythrocyte rabbit-serum were incubated with the lymphocytes for 4 hours at 37° C. The reaction having been stopped the activity of the supernatant of the centrifuged cells was determined in a gamma-counter. The rate of chrome-release was expressed as the cytotoxicity index (CI %). This value was calculated as described in one of our earlier publications (Lang et al., 1980)--(see Table I).
# NK activity was determined by the method of Jondal and Pross (1975) by using minor modifications (Lang et al, 1981). K-562 tumor cells labelled by ^51 Cr were incubated with effector cells in a TC 199 liquid nutrient medium comprising 10% of decomplemented calf serum. The reaction having been stopped the radioactivity of the superntant of the centrifuged cells (chrome release) was counted in a gamma-counter. The killing of the tumor cells (cytotoxicity index %) was expressed as the difference of the test release and spontaneous release.
# Statistical calculations were carried out by means of a mono-sample test. […] The said effect may be so strong that cytotoxic activity decreased to one-tenth of the original value may be restored to the oroginal level (Table II).
# [5] = tested on: human bone metastasis of mammal tumors, ovary tumors and pancreas tumors; assay: Human tumors, oral treatment for 6-12 months; format: in vivo; conditions: oral daily dose 30-120 mg (0.5-2 mg/kg)
# [6] = tested on: hemodinamical parameters and respiration function of cats
# [7] = tested on: P-388 mouse lymphoma cells; assay: In vitro antitumor effect, P-388; format: cell-based; conditions: 400 μg/ml
Compound,Immunostimulant effect [1],LD50 at 24 h (in vivo; po),Toxic effect [2],Effect on migration at a higher dose [4],Direct (random) migration of polymorphonuclear cells [4],Optimal dose for increase of migration [4],Antitumor effect (tumor cells),Antitumor effect of combination vs cytostatic agent alone (NK-yl ascites tumor),Immunodepression of combination vs cytostatic agent alone (NK-yl ascites tumor),Activity against NK-ly-ascites tumor (NK-ly-ascites lymphoma),Survival rate and lifetime (NK-ly-ascites lymphoma),Immunostimulant effect (human lymphocytes),Increase of normal and strongly decreased NK and K cell activity (human lymphocytes),LD50 at 24 h (in vivo; ip),further results
"C=CCSC(=N)NC(=N)N [Example 12, N-Aminoiminomethyl-S-Allyl-Isothiuronium Chloride]",,,,,,,,,,,,,,,Necrosis of heart muscle (heart muscle): significant decrease of necrosis; Killing rate of ticks (ticks (Ixodes ricinus)): all ticks were killed
"N=C(N)NC(=N)SCc1ccccc1 [Example 18, N-Aminoiminomethyl-S-Benzyl-Thiuronium Chloride]",0,2420 ± 260 mg/kg,0,,,,,,,,,,,,Antitumor effect (ascites lymphoma cells): increase
N-Aminoiminomethyl-S-(1-Chloro-2-Hydroxy-Propyl)-Isothiuronium Bromide [Example 14],weak,,,less expressed,increased,1.0 µg/mL,outstanding antitumor effect,the antitumor effect was strengthened,immunodepression decreased,active agains Nk-ly-ascites tumor in a concentration below one-tenth of the LD50 value,increase survival rate and lifetime in a dose-dependant manner,,,,LD50 [3]: 2380 mg/kg; LD50 ([3]; po): 1240 ± 160 mg/kg
"C=CCSC(=N)NC(=N)N [Example 11, N-Aminoiminomethyl-S-Allyl-Isothiuronium Bromide]",strong (The effect is strong if the increase of the cell number and activity of the immune system is more than 20% higher than the control),2380 ± 320 mg/kg,0,less expressed,increased,1.0 µg/mL,outstanding antitumor effect,the antitumor effect was strengthened,immunodepression decreased,active agains Nk-ly-ascites tumor in a concentration below one-tenth of the LD50 value,increase survival rate and lifetime in a dose-dependant manner,outstanding immunostimulant effect,"significant increase of normal and strongly decreased NK and K cell activity, even above the normal level",320 ± 30 mg/kg,"Clinical outcome in human tumors [5]: significant improvement or reconvalescence; Hemodinamical parameters and respiration function ([6]; 10 mg/kg i.v., opened and closed chest): does not considerably effect the hemodinamical parameters and respiration function; Left ventricular pressure and frequency effects ([6]; 50 mg/kg i.v.): significant and long-lasting; Hemodynamical changes ([6]; 100 mg/kg i.v.): strong hemodynamical changes were observed; Left ventricular pressure and frequency ([6]; above 10 mg/kg i.v.): decreased; Lethality ([6]; in vivo): the cats did not perish; Activity on P-388 cells on increasing the concentration [7]: the activity does not become stronger; Cytotoxical dose range (NK-ly-ascites lymphoma; mouse, in vivo): 250 to 500 mg/kg"
"N=C(N)NC(=N)SCCO [Example 16, N-Aminoiminomethyl-S-(2-Hydroxyethyl)-Isothiuronium Chloride]",strong (The effect is strong if the increase of the cell number and activity of the immune system is more than 20% higher than the control),3280 ± 460 mg/kg,0,,,,,the antitumor effect was strengthened,immunodepression decreased,,,outstanding immunostimulant effect,"significant increase of normal and strongly decreased NK and K cell activity, even above the normal level",1680 ± 210 mg/kg,

# — patent publication US4710578A, “Isothiuronium salts” (Peremartoni Vegyipari Vallalat, priority 1984, dated 1987)
